# Experimental data: patent US20260373042A1, “PEPTIDE HAVING ACTIVITY OF IMPROVING STATE OF SKIN, AND USE THEREOF” (CAREGEN CO., LTD., priority 2022, published 2026)
# Tests used:
# NIH3T3 cells [1] = assay: Proliferation (MTT survival rate) of NIH3T3 mouse fibroblasts; type: cell-based; conditions: 50 μM or 100 μM, serum-free DMEM, 72 hours, MTT 540 nm, vs untreated control, FIG. 1A
# Procedure: (§1) In this example, the aim was to confirm the effect of a peptide according to an example on proliferation of skin cells, by evaluating changes in survival rate of NIH3T3 cells, which are mouse fibroblasts, or HaCaT cells, which are human keratinocytes.
# (§2) Specifically, NIH3T3 cells or HaCaT cells were seeded in a 96-well plate at a density of 5×10^3 cells/well and cultured for 24 hours. Next, the cells were washed once with serum-free DMEM media, and 50 μM or 100 μM of a peptide consisting of an amino acid sequence of SEQ ID NO: 1 was dispensed into 200 μL of the serum-free media, and cultured in a CO2 incubator at 37 °C for 72 hours. Next, the culture was washed twice with PBS, and 0.5 mg/ml of MTT (Sigma, Cat. No.: M2003, USA) solution was dispensed into each well. Next, after being shaded from light, it was cultured in a CO2 incubator at 37 °C for 4 hours. Next, the absorbance at 540 nm was measured. In this example, an untreated group was used as the control group, and a group to which insulin-like growth factor was added (IGF) was used as the positive control group.
# HaCaT cells [2] = assay: Proliferation (MTT survival rate) of HaCaT human keratinocytes; type: cell-based; conditions: 50 μM or 100 μM, serum-free DMEM, 72 hours, MTT 540 nm, vs untreated control, FIG. 1B
# Procedure: as §1, §2
# Col1a1 = assay: Expression of collagen type 1 (Col1a1) in NIH3T3 cells, RT-PCR; type: cell-based, mouse; conditions: 50 μM or 1000 μM, 24 hours, vs untreated control, FIG. 2, 3A
# Procedure: (§3) In this example, the aim was to confirm the effect of the peptide according to an example on improving endogenous skin aging, including improvement of wrinkles and enhancement of elasticity, etc., by evaluating the expression levels of collagen type 1 (Col1a1), fibronectin, or elastin, which are known components of the dermis.
# (§4) Specifically, NIH3T3 cells were seeded in a 6-well plate at a density of 3×10^5 cells/well and cultured for 24 hours. Next, the cells were washed once with serum-free DMEM media, and 50 μM or 1000 μM of a peptide consisting of an amino acid sequence of SEQ ID NO: 1 was dispensed into 1 mL of the serum-free media, and cultured in a CO2 incubator at 37 °C for 24 hours. Next, the culture was washed twice with PBS, and RNA was isolated from the culture using easy blue (iNtRON, Korea). Using an RT kit (Enzynomics, Korea), 1 μg of the isolated RNA was reverse transcribed to synthesize the respective cDNA. Next, polymerase chain reaction (PCR) was performed using the cDNAs and primers Col1a1, fibronectin, and elastin. Meanwhile, an untreated group was used as a control group, and a group to which TGF-β1 was added (TGF-β1) was used as a positive control group, the nucleotide sequences of the primers used in this example are shown in Table 2 below.
# fibronectin = assay: Expression of fibronectin in NIH3T3 cells, RT-PCR; type: cell-based, mouse; conditions: 50 μM or 1000 μM, 24 hours, vs untreated control, FIG. 2, 3B
# Procedure: as §3, §4
# elastin = assay: Expression of elastin in NIH3T3 cells, RT-PCR; type: cell-based, mouse; conditions: 50 μM or 1000 μM, 24 hours, vs untreated control, FIG. 2, 3C
# Procedure: as §3, §4
# SIRT-1 = assay: Expression of sirtuin-1 (SIRT-1) in HaCaT cells, RT-PCR; type: cell-based, human; conditions: 50 μM or 1000 μM, 24 hours, vs untreated control, FIG. 4, 5A
# Procedure: (§5) In this example, the aim was to confirm the effect of the peptides according to an example on strengthening the skin barrier, by evaluating the expression levels of sirtuin-1 (SIRT-1) or aquaporin-3 (AQP3).
# (§6) Specifically, HaCaT cells were seeded in a 6-well plate at a density of 3×10^5 cells/well and cultured for 24 hours. Next, the cells were washed once with serum-free DMEM media, and 50 μM or 1000 μM of a peptide consisting of an amino acid sequence of SEQ ID NO: 1 was dispensed into 1 mL of the serum-free media, and cultured in a CO2 incubator at 37 °C for 24 hours. Next, the culture was washed twice with PBS, and RNA was isolated from the culture using easy blue (iNtRON, Korea). Using an RT kit (Enzynomics, Korea), 1 μg of the isolated RNA was reverse transcribed to synthesize the respective cDNA. Next, polymerase chain reaction was performed using the cDNAs and primers sirtuin-1 and aquaporin-3. Meanwhile, an untreated group was used as a control group, and a group to which EGF was added (EGF) was used as a positive control group, the nucleotide sequences of the primers used in this example are shown in Table 3 below.
# AQP3 = assay: Expression of aquaporin-3 (AQP3) in HaCaT cells, RT-PCR; type: cell-based, human; conditions: 50 μM or 1000 μM, 24 hours, vs untreated control, FIG. 4, 5B
# Procedure: as §5, §6
# NIH3T3 cells [3] = assay: Reactive oxygen species increased by ultraviolet rays in NIH3T3 cells (DCFH-DA, flow cytometry); type: cell-based, mouse; conditions: 50 μM or 1000 μM, UV 8 J/cm^2, 24 hours after UV, FIG. 6
# Procedure: (§7) In this example, the aim was to confirm the effect of the peptide according to an embodiment on the antioxidant effect in damaged skin, by evaluating the change in the level of reactive oxygen species in skin cells increased by ultraviolet irradiation.
# (§8) Specifically, NIH3T3 cells or HaCaT cells were seeded in a 6-well plate at a density of 5×10^5 cells/well and cultured for 24 hours. Next, the cells were washed once with serum-free DMEM media, and 50 μM or 1000 μM of a peptide consisting of an amino acid sequence of SEQ ID NO: 1 was dispensed into 1 mL of the serum-free media, and cultured in a CO2 incubator at 37 °C for […]. Next, the above culture was transferred to an e-tube, mixed with 1 ml of PBS, and dispensed into a well plate. Next, using a UV irradiator (VILBER LOURMAT, Cat No.: 3102-BSU, France), 8 J/cm^2 ultraviolet rays were irradiated to NIH3T3 cells, and 15 mJ/cm^2 ultraviolet rays were irradiated to HaCaT cells. Next, the PBS in the well plate was removed, 900 μL of the culture medium in which the peptides were dispensed was added, and the plate was cultured in a CO2 incubator at 37 °C for 24 hours. Next, the culture was treated with DCFH-DA (2′,7′-dichlorofluorescin diacetate), wrapped in foil, and cultured in a CO2 incubator at 37 °C for 30 minutes. […] After washing the centrifuged cells with PBS, fluorescence values were measured through flow cytometry (FACS, BD, USA). […]
# HaCaT cells [4] = assay: Reactive oxygen species increased by ultraviolet rays in HaCaT cells (DCFH-DA, flow cytometry); type: cell-based, human; conditions: 50 μM or 1000 μM, UV 15 mJ/cm^2, 24 hours after UV, FIG. 7
# Procedure: as §7, §8
substance,measurement,setting,value
DGWNY [SEQ ID NO: 1],proliferation of fibroblasts,NIH3T3 cells [1],promoted
same,proliferation of keratinocytes,HaCaT cells [2],promoted
same,expression of Col1a1,Col1a1,increased
same,expression of fibronectin,fibronectin,increased
same,expression of elastin,elastin,increased
same,expression of SIRT-1,SIRT-1,increased
same,expression of AQP3,AQP3,increased
same,level of reactive oxygen species in fibroblasts increased by ultraviolet irradiation,NIH3T3 cells [3],reduced
same,level of reactive oxygen species in keratinocytes increased by ultraviolet irradiation,HaCaT cells [4],reduced
